Laboratory results from patent US20150011566A1, “N-PHENYLPIPERAZINE DERIVATIVES THAT ARE ANTAGONISTS OF A1A, A1D ADRENOCEPTORS AND 5-HT1A RECEPTORS FOR THE TREATMENT OF BENIGN PROSTATE HYPERPLASIA, PHARMACEUTICAL COMPOSITIONS CONTAINING THE SAME” (UNIVERSIDADE FEDERAL DO RIO DE JANEIRO-UFRJ, priority 2012, published 2015).
Marks after values point to notes of the source that are not given here.

Assays:
[1] = biological target: T1, α1D receptors (Homo sapiens, UniProt P25100); assay: Cell proliferation in vitro, DU-145 cells stimulated with phenylephrine (MTT); type: cell-based; conditions: for Proliferation percentage in relation to basel (100%) in the presence of LDT's, α1D: 48 h; for inhibition of the effect of the α1D receptors stimulus on proliferation: LDT3 50 nM, LDT66 20 nM
T1 construct: endogenous in cells; host or cells: DU-145
T1 sequence (P25100 1-572): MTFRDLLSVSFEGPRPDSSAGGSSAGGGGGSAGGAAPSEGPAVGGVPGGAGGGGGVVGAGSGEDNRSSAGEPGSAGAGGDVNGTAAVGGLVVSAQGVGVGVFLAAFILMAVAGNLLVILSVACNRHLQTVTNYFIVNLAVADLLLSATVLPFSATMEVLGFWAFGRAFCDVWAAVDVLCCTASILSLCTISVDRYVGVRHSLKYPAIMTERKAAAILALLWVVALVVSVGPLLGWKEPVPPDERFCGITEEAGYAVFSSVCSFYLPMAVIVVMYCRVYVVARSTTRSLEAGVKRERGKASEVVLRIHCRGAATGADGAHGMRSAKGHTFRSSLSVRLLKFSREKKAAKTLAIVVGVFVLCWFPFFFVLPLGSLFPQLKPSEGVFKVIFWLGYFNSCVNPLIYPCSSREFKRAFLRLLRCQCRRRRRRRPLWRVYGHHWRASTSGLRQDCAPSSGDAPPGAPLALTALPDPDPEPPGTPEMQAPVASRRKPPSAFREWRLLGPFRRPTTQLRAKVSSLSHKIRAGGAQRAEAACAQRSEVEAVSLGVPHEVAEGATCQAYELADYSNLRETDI
Method: (§1) Human prostate cancer cells (DU-145) were cultured in medium (RPMI 1640) until confluence. Then the cells were dissociated, plated (5×10^3 cells/well) and maintained in medium free of fetal bovine serum for 24 hours. […] Cell proliferation was assessed by using the MTT technique (MOSMANN, T. Immunol Methods. 16; 65 (1-2):55-63, 1983).

[2] = biological target: T2, 5-HT1A receptors (Homo sapiens, UniProt P08908); assay: Cell proliferation in vitro, DU-145 cells stimulated with 5-HT (MTT); type: cell-based; conditions: for Proliferation percentage in relation to basel (100%) in the presence of LDT's, 5HT1A: 48 h; for inhibition of the effect of the 5-HT1A receptors stimulus on proliferation: LDT3 50 nM, LDT66 20 nM
T2 construct: endogenous in cells; host or cells: DU-145
T2 sequence (P08908 1-422): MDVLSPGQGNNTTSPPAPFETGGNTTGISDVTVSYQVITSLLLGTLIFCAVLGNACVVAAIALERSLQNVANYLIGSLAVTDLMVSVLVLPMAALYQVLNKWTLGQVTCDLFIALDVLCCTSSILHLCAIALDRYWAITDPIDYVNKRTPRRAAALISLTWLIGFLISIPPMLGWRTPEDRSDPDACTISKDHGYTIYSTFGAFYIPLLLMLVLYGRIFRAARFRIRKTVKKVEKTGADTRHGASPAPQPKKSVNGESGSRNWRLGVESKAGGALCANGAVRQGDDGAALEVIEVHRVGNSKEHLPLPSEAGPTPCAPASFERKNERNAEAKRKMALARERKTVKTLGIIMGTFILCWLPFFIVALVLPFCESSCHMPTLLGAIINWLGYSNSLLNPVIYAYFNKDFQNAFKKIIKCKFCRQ
Method: as §1

[3] = Acute toxicity test in Swiss mice (body temperature, behaviour for 14 days); type: in vivo; conditions: n=6; for T (° C.) Basal Measure: body temperature before treatment; for T (° C.) 30′ after LDT / T (° C.) 60′ after LDT: body temperature, 100 mg/kg ip
Method: Swiss mice (female, 25-30 g, 6 animals per condition) were treated with LDT via intraperitoneal with LTD's at a dose of […] and observed for 14 days in the behavioral framework according to described method (LORKE, D., Arch Toxicol, 54 (4): 275-87, 1983, modified). The temperature was measured by retal probe before and after 30 and 60 min of described treatment.

[4] = biological target: D2-Like receptors (Rattus norvegicus, UniProt P61169); assay: D2-like receptors binding assay, [3H]-YM 09151-2 (rat striatal membranes); conditions: Table 15; for Ki: Cheng-Prusoff
Method: Briefly, organs were homogenized for 30 seconds three times in Fisatom in 50 mM Tris-HCl, MgCl2 8 mM, 5 mM EDTA (pH 7.4 at 4° C.) and then centrifuged at 48,000×gav (20 minutes 4° C.). The pellet was resuspended in 50 mM Tris-HCl, 8 mM MgCl2, 5 mM EDTA (pH 7.4 at 37° C.), incubated at 37° C. for 10 minutes and centrifuged twice more. The final pellet was resuspended in the same buffer at a concentration of 1.5 mL/g tissue.
Non-specific binding was measured in the presence of 30 μM sulpiride. Assays were performed in triplicate.
The radioactivity retained on the filters was then determined in a liquid scintillation counter (Packard Tri-Carb 1600 TR). For these receptors were also determined IC50 and Ki parameters.

[5] = biological target: T3, α1D adrenoceptors (Rattus norvegicus, UniProt P23944); assay: Phenylephrine-induced contraction inhibition in rat aorta (isometric contraction, Schild KB); type: cell-based; conditions: ratio of EC50 in presence and absence of test substance, 2 nM
T3 construct: the rat thoracic aorta corresponds to a tissue expressing mainly α1D-adrenoceptors; from tissue; host or cells: rat thoracic aorta rings
T3 sequence (P23944 1-561): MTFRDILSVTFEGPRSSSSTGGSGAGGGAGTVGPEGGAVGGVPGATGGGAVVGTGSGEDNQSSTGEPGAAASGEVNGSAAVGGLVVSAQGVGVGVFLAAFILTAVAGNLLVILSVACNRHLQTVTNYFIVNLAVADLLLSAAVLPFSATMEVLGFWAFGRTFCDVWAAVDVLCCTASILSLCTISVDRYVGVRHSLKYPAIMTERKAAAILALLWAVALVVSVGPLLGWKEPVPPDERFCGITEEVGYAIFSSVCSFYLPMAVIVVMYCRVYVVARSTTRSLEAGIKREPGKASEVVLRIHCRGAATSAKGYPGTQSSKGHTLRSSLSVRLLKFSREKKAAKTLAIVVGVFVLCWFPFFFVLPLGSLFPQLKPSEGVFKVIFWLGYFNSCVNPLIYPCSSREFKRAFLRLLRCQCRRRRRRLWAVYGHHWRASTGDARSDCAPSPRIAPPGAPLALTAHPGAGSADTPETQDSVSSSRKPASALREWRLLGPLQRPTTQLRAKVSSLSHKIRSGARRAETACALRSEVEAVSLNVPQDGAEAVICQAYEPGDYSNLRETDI

[6] = DU-145, 5-HT 1 μM + test substance 50 nM
[7] = DU-145, phenylephrine 3 μM + test substance 50 nM

Chain of D2-Like receptors (P61169 whole entry): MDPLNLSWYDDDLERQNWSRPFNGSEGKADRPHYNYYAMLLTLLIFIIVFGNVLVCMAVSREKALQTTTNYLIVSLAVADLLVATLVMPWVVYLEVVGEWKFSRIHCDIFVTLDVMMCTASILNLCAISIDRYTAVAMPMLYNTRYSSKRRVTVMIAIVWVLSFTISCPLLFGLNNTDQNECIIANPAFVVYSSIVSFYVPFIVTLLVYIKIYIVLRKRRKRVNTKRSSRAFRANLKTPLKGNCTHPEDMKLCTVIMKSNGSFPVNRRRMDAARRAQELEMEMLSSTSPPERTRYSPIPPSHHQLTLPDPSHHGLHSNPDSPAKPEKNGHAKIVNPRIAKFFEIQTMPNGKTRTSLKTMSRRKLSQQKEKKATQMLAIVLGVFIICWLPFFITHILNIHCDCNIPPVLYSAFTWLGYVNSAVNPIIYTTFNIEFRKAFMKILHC

Structure (SMILES)	Proliferation percentage in relation to basel (100%) in the presence of LDT's, 5HT1A [2, 6]	T (° C.) Basal Measure [3] [°C]	T (° C.) 30′ after LDT [3] [°C]	T (° C.) 60′ after LDT [3] [°C]	Ki [4] [nM]	-log IC50 (M) [4] [M]	other results
COc1cccc(CCN2CCN(c3ccccc3OC)CC2)c1 [LDT 3]	96.9 ± 5.8^b %	35.33	35.50	35.50			Proliferation percentage in relation to basel (100%) in the presence of LDT's, α1D ([1]; DU-145, phenylephrine 3 μM + test substance 500 nM): 99.2 ± 5.8^a %; inhibition of the effect of the α1D receptors stimulus on proliferation [1]: inhibited the effect; inhibition of the effect of the 5-HT1A receptors stimulus on proliferation [2]: inhibited the effect
COc1ccc(CCN2CCN(c3ccccc3OC)CC2)cc1OC [LDT 5]	118.8 ± 9.9%	35.00	35.50	35.17	100		Proliferation percentage in relation to basel (100%) in the presence of LDT's, α1D [1, 7]: 117.3 ± 8.9%
CCOc1ccccc1N1CCN(CCc2ccc3c(c2)OCO3)CC1 [LDT 8]		35.67	35.67	35.50			Proliferation percentage in relation to basel (100%) in the presence of LDT's, α1D ([1]; DU-145, phenylephrine 3 μM + test substance 5 nM): 124.05 ± 9.6%; Proliferation percentage in relation to basel (100%) in the presence of LDT's, 5HT1A ([2]; DU-145, 5-HT 1 μM + test substance 5 nM): 138.4 ± 42.9%
CCCCCN1CCN(c2ccccc2OC)CC1 [LDT 65]		37.17	37.17	37.17			
CCCCCCN1CCN(c2ccccc2OC)CC1 [LDT 66]	110.8 ± 7.7^b %	37.00	37.50	37.33	40	6.92 ± 0.11	Proliferation percentage in relation to basel (100%) in the presence of LDT's, α1D [1, 7]: 76 ± 7.7^a %; inhibition of the effect of the α1D receptors stimulus on proliferation [1]: inhibited the effect; inhibition of the effect of the 5-HT1A receptors stimulus on proliferation [2]: inhibited the effect
CCCCCCCN1CCN(c2ccccc2OC)CC1 [LDT 67]					9	7.47 ± 0.07	
CCCCCCCCN1CCN(c2ccccc2OC)CC1 [LDT 68]					9	7.49 ± 0.09	
CCOc1ccccc1N1CCN(CCc2ccc(OC)c(OC)c2)CC1 [LDT 245]							CR ± EPM [5]: 3.9 ± 1.0
